MIC data for one molecule are collected here from US20160257651A1, “NOVEL COMPOUND WITH ANTIBACTERIAL ACTIVITY” (priority 2013, published 2016).

In brackets after ≈: the same amount, converted by molar mass.

The first assay deals with S. pneumoniae KBSP11. Nature of the assay: MIC against pneumococcus, CAMHB with 5 mass % LHB. The format is cell-based, Streptococcus pneumoniae. Particulars: Streptococcus pneumoniae, PRSP. The procedure: (§1) The S. pneumoniae strains used for this test belong to any one of the categories of penicillin-susceptible pneumococcus (penicillin-susceptible Streptococcus pneumoniae, PSSP), penicillin-intermediate pneumococcus (penicillin-intermediate Streptococcus pneumoniae, PISP), and penicillin-resistant pneumococcus (penicillin-resistant Streptococcus pneumoniae, PRSP).
(§2) The lysed horse blood was prepared by adding sterilized water to horse sterile defibered blood (produced by Nippon Bio-Supp. Center) at a ratio of 1:1, subjecting the mixture to freezing and thawing 5 times, then centrifuging the mixture twice at 10,000 rpm for 20 minutes, and filtering the supernatant through a filter.
(§3) The S. pneumoniae strains mentioned in Table 11 were each cultured overnight at 37° C. on a blood agar medium as stationary culture. The blood agar medium was prepared by adding 5 mass % ovine sterile defibered blood (produced by Nippon Bio-Supp. Center) to a heart infusion agar medium (produced by EIKEN CHEMICAL). Each S. pneumoniae strain cultured overnight at 37° C. as stationary culture was further subcultured overnight at 37° C. on fresh blood agar medium as stationary culture. After completion of the culture, cells of each pneumococcus strain were collected with a swab, and suspended in physiological saline, and the suspension was adjusted with physiological saline to show absorbance of 0.08 to 0.13 at 625 nm as measured with an absorbance meter (produced by Amersham), and further diluted 200 times with CAMHB containing 5 mass % LHB.
(§4) In Table 11, the amino acid substitution mutations in QRDR of the strains are underlined.
As for `O=c1cc(CO)c2cc(F)c(-c3ccc(O)cc3)cc2n1C1CC1` [J-131CP, 1-cyclopropyl-6-fluoro-4-(hydroxymethyl)-7-(4-hydroxyphenyl)-1,2-dihydroquinolin-2-one], the MIC came to 2 µg/mL (≈ 6.15 µM).

The test system of another assay is S. pneumoniae BCLSP37. The experiment in a line: MIC against pneumococcus, CAMHB with 5 mass % LHB. It is filed as cell-based, Streptococcus pneumoniae. Particulars: Streptococcus pneumoniae, BCLSP37, S. pneumoniae BCLSP37, PSSP, quinolone-resistant; ParC 79Phe, GyrA 85Lys; read-out: MIC. The procedure:
as §1, §2, §3, §4
With `O=c1cc(CO)c2cc(F)c(-c3ccc(O)cc3)cc2n1C1CC1` [J-131CP, 1-cyclopropyl-6-fluoro-4-(hydroxymethyl)-7-(4-hydroxyphenyl)-1,2-dihydroquinolin-2-one], the MIC amounted to 4 µg/mL (≈ 12.3 µM).

A further assay relates to Staphylococcus aureus KSA36 (MRSA). Nature of the assay: MIC, S. aureus categories (Test Example 3).
Conditions: not given
It is filed as cell-based. The procedure: (§5) The antibacterial activities of the compound J-131CP against Staphylococcus aureus strains belonging to the five categories of Staphylococcus aureus, i.e., MSSA, MRSA, community-acquired-infection type MRSA (CA-MRSA), VISA, and VRSA, were investigated.
(§6) The compound J-131CP and quinolones were prepared in the same manner as that of Test Example 1-1.
(§7) Cell suspensions were prepared in the same manner as that of Test Example 1-1 described in the section of measurement of MIC in Test Example 1-1, except that the strains mentioned in Table 6 were used as Staphylococcus aureus, and MICs of the compound J-131CP and quinolones as the control were determined for the strains in the same manner as that of Test Example 1-1. In Table 6, the amino acid substitution mutations in QRDR of the strains are underlined.
Turning to `O=c1cc(CO)c2cc(F)c(-c3ccc(O)cc3)cc2n1C1CC1` [J-131CP, 1-cyclopropyl-6-fluoro-4-(hydroxymethyl)-7-(4-hydroxyphenyl)-1,2-dihydroquinolin-2-one], the MIC is ≤ 0.06 µg/mL.

A further assay concerns Staphylococcus aureus MW2 (CA-MRSA). The experiment in a line: MIC, S. aureus categories (Test Example 3). It is filed as cell-based. Particulars: Staphylococcus aureus, MRSA, strain MW2, CA-MRSA. The procedure:
as §5, §6, §7
As to `O=c1cc(CO)c2cc(F)c(-c3ccc(O)cc3)cc2n1C1CC1` [J-131CP, 1-cyclopropyl-6-fluoro-4-(hydroxymethyl)-7-(4-hydroxyphenyl)-1,2-dihydroquinolin-2-one], the MIC is 0.125 to 0.25 µg/mL (≈ 0.384 to 0.768 µM).

The same assay, now with this note: strain MW2, CA-MRSA.
`O=c1cc(CO)c2cc(F)c(-c3ccc(O)cc3)cc2n1C1CC1` [J-131CP, 1-cyclopropyl-6-fluoro-4-(hydroxymethyl)-7-(4-hydroxyphenyl)-1,2-dihydroquinolin-2-one] displayed an MIC of 0.125 µg/mL (≈ 0.384 µM).

A further assay concerns Staphylococcus aureus ATCC29213 (MSSA). Nature of the assay: MIC, S. aureus categories (Test Example 3). The format is cell-based. The note with it: strain ATCC29213, MSSA. The procedure:
as §5, §6, §7
As to `O=c1cc(CO)c2cc(F)c(-c3ccc(O)cc3)cc2n1C1CC1` [J-131CP, 1-cyclopropyl-6-fluoro-4-(hydroxymethyl)-7-(4-hydroxyphenyl)-1,2-dihydroquinolin-2-one], the MIC fell in the range of 0.125 to 0.25 µg/mL (≈ 0.384 to 0.768 µM).

The same assay, now with this note: strain ATCC29213, MSSA, read-out: MIC.
Take `O=c1cc(CO)c2cc(F)c(-c3ccc(O)cc3)cc2n1C1CC1` [J-131CP, 1-cyclopropyl-6-fluoro-4-(hydroxymethyl)-7-(4-hydroxyphenyl)-1,2-dihydroquinolin-2-one]: the MIC was 0.25 µg/mL (≈ 0.768 µM).

The test system of a further assay is Staphylococcus aureus BR2 (VISA). The experiment in a line: MIC, S. aureus categories (Test Example 3).
Conditions: not given
The format is cell-based. The procedure:
as §5, §6, §7
In the case of `O=c1cc(CO)c2cc(F)c(-c3ccc(O)cc3)cc2n1C1CC1` [J-131CP, 1-cyclopropyl-6-fluoro-4-(hydroxymethyl)-7-(4-hydroxyphenyl)-1,2-dihydroquinolin-2-one], the MIC was ≤ 0.06 µg/mL.

The next assay concerns Staphylococcus aureus MI (VISA). Nature of the assay: MIC, S. aureus categories (Test Example 3). It is filed as cell-based.
Conditions: not given
The procedure:
as §5, §6, §7
Turning to `O=c1cc(CO)c2cc(F)c(-c3ccc(O)cc3)cc2n1C1CC1` [J-131CP, 1-cyclopropyl-6-fluoro-4-(hydroxymethyl)-7-(4-hydroxyphenyl)-1,2-dihydroquinolin-2-one], the MIC is ≤ 0.06 µg/mL.

The next assay relates to Staphylococcus aureus VRS1 (VRSA). Nature of the assay: MIC, S. aureus categories (Test Example 3). The format is cell-based.
Conditions: not given
The procedure:
as §5, §6, §7
For the molecule `O=c1cc(CO)c2cc(F)c(-c3ccc(O)cc3)cc2n1C1CC1` [J-131CP, 1-cyclopropyl-6-fluoro-4-(hydroxymethyl)-7-(4-hydroxyphenyl)-1,2-dihydroquinolin-2-one], the MIC is ≤ 0.06 µg/mL.

The subject of a further assay is Staphylococcus aureus VRS3a (VRSA). Nature of the assay: MIC, S. aureus categories (Test Example 3). The format is cell-based.
Conditions: not given
The procedure: as §5, §6, §7
With `O=c1cc(CO)c2cc(F)c(-c3ccc(O)cc3)cc2n1C1CC1` [J-131CP, 1-cyclopropyl-6-fluoro-4-(hydroxymethyl)-7-(4-hydroxyphenyl)-1,2-dihydroquinolin-2-one], the minimum inhibitory concentration (MIC) was ≤ 0.06 µg/mL.

The next assay deals with Staphylococcus aureus NCTC8325 (MSSA). Nature of the assay: MIC, S. aureus categories (Test Example 3). The note with it: Staphylococcus aureus; strain NCTC8325, MSSA. It is filed as cell-based. The procedure:
as §5, §6, §7
Consider `O=c1cc(CO)c2cc(F)c(-c3ccc(O)cc3)cc2n1C1CC1` [J-131CP, 1-cyclopropyl-6-fluoro-4-(hydroxymethyl)-7-(4-hydroxyphenyl)-1,2-dihydroquinolin-2-one], for which the MIC lay in the range of 0.125 to 0.25 µg/mL (≈ 0.384 to 0.768 µM).

Staying with this assay, now noted: strain NCTC8325, MSSA.
Molecule `O=c1cc(CO)c2cc(F)c(-c3ccc(O)cc3)cc2n1C1CC1` [J-131CP, 1-cyclopropyl-6-fluoro-4-(hydroxymethyl)-7-(4-hydroxyphenyl)-1,2-dihydroquinolin-2-one] displayed an MIC of 0.125 µg/mL (≈ 0.384 µM).

Another assay concerns Staphylococcus aureus USA300FPR (CA-MRSA). Nature of the assay: MIC, S. aureus categories (Test Example 3). It is filed as cell-based.
Conditions: not given
The procedure:
as §5, §6, §7
Regarding `O=c1cc(CO)c2cc(F)c(-c3ccc(O)cc3)cc2n1C1CC1` [J-131CP, 1-cyclopropyl-6-fluoro-4-(hydroxymethyl)-7-(4-hydroxyphenyl)-1,2-dihydroquinolin-2-one], the MIC is ≤ 0.06 µg/mL.

The next assay has as its system S. aureus MR5867. The experiment in a line: MIC against stepwise QRDR mutants. The format is cell-based. The note with it: Staphylococcus aureus.
Description: (§8) In order to further verify that the action site of the compound J-131CP is gyrA, there were examined antibacterial activities against the MRSA, S. aureus MR5867, and stepwise-mutated strains (one-step mutant strain to three-step mutant strain) of S. aureus MR5867 in which mutation was introduced into QRDR, as well as the MSSA, S. aureus MS5952, and stepwise-mutated strains (one-step mutant strain to three-step mutant strain) of S. aureus MS5952 in which mutation was introduced into QRDR (those strains mentioned above are described in Antimicrob. Agents Chemother., 42(8), pp. 1917-1922, 1998) by the following methods. The strains used for this test example are available from the inventors of the present invention.
as §6
(§9) Then, the cell suspension was diluted 500 times with CAMHB mentioned above.
(§10) CAMHB containing each of the compound J-131CP and quinolones at each concentration was added to each well of a 96-well plate in a volume of 50 μL/well, the aforementioned cell suspension diluted 500 times was added to the well in a volume of 50 μL/well, and stationary culture was carried out overnight at 37° C. in the same manner as that of Test Example 1-1.
In the case of `O=c1cc(CO)c2cc(F)c(-c3ccc(O)cc3)cc2n1C1CC1` [J-131CP, 1-cyclopropyl-6-fluoro-4-(hydroxymethyl)-7-(4-hydroxyphenyl)-1,2-dihydroquinolin-2-one], the MIC came out at 0.25 µg/mL (≈ 0.768 µM).

The test system of another assay is S. aureus MS5952 two-step mutant. Nature of the assay: MIC against stepwise QRDR mutants. The format is cell-based. Particulars: Staphylococcus aureus.
Description: as §8, §6, §9, §10
Consider `O=c1cc(CO)c2cc(F)c(-c3ccc(O)cc3)cc2n1C1CC1` [J-131CP, 1-cyclopropyl-6-fluoro-4-(hydroxymethyl)-7-(4-hydroxyphenyl)-1,2-dihydroquinolin-2-one], for which 0.125 µg/mL (≈ 0.384 µM) was the least that counted as inhibitory (MIC).

In another assay the test system is S. aureus MS5952. Nature of the assay: MIC against stepwise QRDR mutants. It is filed as cell-based. Particulars: Staphylococcus aureus.
Description: as §8, §6, §9, §10
`O=c1cc(CO)c2cc(F)c(-c3ccc(O)cc3)cc2n1C1CC1` [J-131CP, 1-cyclopropyl-6-fluoro-4-(hydroxymethyl)-7-(4-hydroxyphenyl)-1,2-dihydroquinolin-2-one]: the MIC was found to be 0.25 µg/mL (≈ 0.768 µM).

The next assay deals with S. aureus MR5867 three-step mutant. Nature of the assay: MIC against stepwise QRDR mutants. It is filed as cell-based. The note with it: Staphylococcus aureus.
Description: as §8, §6, §9, §10
As to `O=c1cc(CO)c2cc(F)c(-c3ccc(O)cc3)cc2n1C1CC1` [J-131CP, 1-cyclopropyl-6-fluoro-4-(hydroxymethyl)-7-(4-hydroxyphenyl)-1,2-dihydroquinolin-2-one], the MIC is ≤ 0.06 µg/mL.

In another assay the test system is S. aureus MR5867 two-step mutant. The experiment in a line: MIC against stepwise QRDR mutants. It is filed as cell-based. Particulars: Staphylococcus aureus.
Description: as §8, §6, §9, §10
Take `O=c1cc(CO)c2cc(F)c(-c3ccc(O)cc3)cc2n1C1CC1` [J-131CP, 1-cyclopropyl-6-fluoro-4-(hydroxymethyl)-7-(4-hydroxyphenyl)-1,2-dihydroquinolin-2-one]: the MIC is > 0.06 µg/mL.

A further assay concerns S. aureus MS5952 three-step mutant. Nature of the assay: MIC against stepwise QRDR mutants. It is filed as cell-based. The note with it: Staphylococcus aureus.
Description: as §8, §6, §9, §10
`O=c1cc(CO)c2cc(F)c(-c3ccc(O)cc3)cc2n1C1CC1` [J-131CP, 1-cyclopropyl-6-fluoro-4-(hydroxymethyl)-7-(4-hydroxyphenyl)-1,2-dihydroquinolin-2-one] returned an MIC of 0.125 µg/mL (≈ 0.384 µM).

Another assay relates to E. faecium RPR2. Nature of the assay: MIC against Enterococcus bacteria. The note with it: Enterococcus faecium, RPR2. The format is cell-based, Enterococcus faecium. The procedure: (§11) Antibacterial activities of the compound J-131CP against Enterococcus bacteria (Enterococcus faecium and Enterococcus faecalis) were examined by the following methods.
as §6
(§12) Cell suspensions were prepared in the same manner as that of Test Example 1-1 described in the section of measurement of MIC in Test Example 1-1, except that the Enterococcus bacterium strains mentioned in Table 8 were used instead of Staphylococcus aureus, and MICs of the compound J-131CP and quinolones as control were determined for the strains in the same manner as that of Test Example 1-1 described in the section of measurement of MIC in Test Example 1-1. In Table 8, the amino acid substitution mutations in QRDR of the strains are underlined.
`O=c1cc(CO)c2cc(F)c(-c3ccc(O)cc3)cc2n1C1CC1` [J-131CP, 1-cyclopropyl-6-fluoro-4-(hydroxymethyl)-7-(4-hydroxyphenyl)-1,2-dihydroquinolin-2-one] registered an MIC of 4 µg/mL (≈ 12.3 µM).

The subject of a further assay is E. faecium NCTC12202. Nature of the assay: MIC against Enterococcus bacteria. The format is cell-based, Enterococcus faecium. Particulars: Enterococcus faecium, NCTC 12202 / VRE. The procedure: as §11, §6, §12
As for `O=c1cc(CO)c2cc(F)c(-c3ccc(O)cc3)cc2n1C1CC1` [J-131CP, 1-cyclopropyl-6-fluoro-4-(hydroxymethyl)-7-(4-hydroxyphenyl)-1,2-dihydroquinolin-2-one], the MIC turned out to be 8 µg/mL (≈ 24.6 µM).

What is called MIC is the smallest concentration in the dilution series that meets the test's criterion for growth inhibition.
